Reference: patent US11389447B2 (Janssen Sciences Ireland Unlimited Company, priority 2006, dated 2022)
Read-outs that look alike come from different tables or passages of the source.

Assay: Kinetic study: plasma kinetics of TMC278 after single IM or SC injection of a nanosuspension;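 note: healthy male beagle dogs injected in both biceps femoris muscles (IM) or both thoracal sides (SC), total volume 0.2 mL/kg, drug measured in plasma from blood samples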
Type: in vivo, male beagle dogs
Settings: 5 mg/kg; for AUC(0-t) / Cmax / Tmax / concentration at 0 h / concentration at 1 h / concentration at 3 h / concentration at 8 h / concentration at 24 h / concentration at 48 h / concentration at 72 h / concentration at 144 h / concentration at 192 h / concentration at 240 h / concentration at 312 h / concentration at 384 h / concentration at 480 h / concentration at 648 h / concentration at 696 h / concentration at 864 h / concentration at 1032 h / concentration at 1200 h / concentration at 1368 h / concentration at 1536 h / concentration at 1704 h / concentration at 1872 h / concentration at 2040 h / concentration at 2208 h: male, beagle, dog, plasma; for AUC(0-t) / Cmax / Tmax: im, single IM 5 mg/kg TMC278 nanosuspension; for Cmax: read-out: Cmax; for Tmax: read-out: Tmax; for concentration at 0 h / concentration at 1 h / concentration at 3 h / concentration at 8 h / concentration at 24 h / concentration at 48 h / concentration at 72 h / concentration at 144 h / concentration at 192 h / concentration at 240 h / concentration at 312 h / concentration at 384 h / concentration at 480 h / concentration at 648 h / concentration at 696 h / concentration at 864 h / concentration at 1032 h / concentration at 1200 h / concentration at 1368 h / concentration at 1536 h / concentration at 1704 h / concentration at 1872 h / concentration at 2040 h / concentration at 2208 h: intramuscular, plasma concentration of TMC278, single IM 5 mg/kg TMC278 nanosuspension
Description: Six healthy male beagle dogs with body weights ranging from 8 to 16 kg at the start of the study, were used. Each dog was identified by an ear tattoo number. Two dogs were dosed intramuscularly (IM) in the left and right m. biceps femoris (treatment group A). […] Two dogs were dosed subcutaneously (SC) in the left and right thoracal region. The injection volume was 2×0.1 ml/kg in all treatment groups. A 20 G needle was used.
Blood samples of 3 ml were taken from the left jugular vein from all dogs on day 0 at 0 h (predose), 20 min, 1 h, 3 h, 8 h and 24 h post-dose and further on days 2, 3, 6, 8, 10, 13, 16, 20, 23, 27, 29, 36, 43, 50, 57, 64, 71, 78, 85 and 92 at approximately 8 AM. Blood samples were placed on EDTA, EDTA Vacuette Greiner, Cat. No. 454086, Greiner Labortechnik N.V.). Within 2 h of blood sampling, samples were centrifuged at room temperature at about 1900×g for 10 minutes to allow plasma separation. Plasma was immediately transferred into a second tube and stored in the freezer within 2 hours after the start of centrifugation.

## Cc1cc(C=CC#N)cc(C)c1Nc1ccnc(Nc2ccc(C#N)cc2)n1 [TMC278, 4-[[4-[[4-(2-cyanoethenyl)-2,6-dimethylphenyl]amino]-2-pyrimidinyl]amino]benzonitrile]
Injectable formulation of nanonised substance, male beagle dogs
  blood plasma levels after injection (in words): stable blood plasma levels during a prolonged period of time
Dog 17264, read-out: AUC0-312 h
  AUC(0-t): 27400 ng·h/mL
Dog 17264, read-out: AUC0-696 h
  AUC(0-t): 34800 ng·h/mL
Dog 17264, read-out: AUC0-2208 h
  AUC(0-t): 40500 ng·h/mL
Dog 17264
  Cmax: 159 ng/mL
  Tmax: 48 h
Dog 18186, read-out: AUC0-312 h
  AUC(0-t): 26600 ng·h/mL
Dog 18186, read-out: AUC0-696 h
  AUC(0-t): 33000 ng·h/mL
Dog 18186, read-out: AUC0-2208 h
  AUC(0-t): 38200 ng·h/mL
Dog 18186
  Cmax: 186 ng/mL
Mean of 2 dogs, read-out: AUC0-312 h
  AUC(0-t): 27000 ng·h/mL
Mean of 2 dogs, read-out: AUC0-696 h
  AUC(0-t): 33900 ng·h/mL
Mean of 2 dogs, read-out: AUC0-2208 h
  AUC(0-t): 39400 ng·h/mL
Mean of 2 dogs
  Cmax: 173 ng/mL
  Tmax: 24 h
Dog 17264, 0 h (d0, predose)
  concentration at 0 h: < 1 ng/mL
Dog 17264, 1 h
  concentration at 1 h: 110 ng/mL
Dog 17264, 3 h
  concentration at 3 h: 131 ng/mL
Dog 17264, 8 h
  concentration at 8 h: 130 ng/mL
Dog 17264, 24 h (d1)
  concentration at 24 h: 150 ng/mL
Dog 17264, 48 h (d2)
  concentration at 48 h: 159 ng/mL
Dog 17264, 72 h (d3)
  concentration at 72 h: 115 ng/mL
Dog 17264, 144 h (d6)
  concentration at 144 h: 86.2 ng/mL
Dog 17264, 192 h (d8)
  concentration at 192 h: 72.4 ng/mL
Dog 17264, 240 h (d10)
  concentration at 240 h: 56.7 ng/mL
Dog 17264, 312 h (d13)
  concentration at 312 h: 33.4 ng/mL
Dog 17264, 384 h (d16)
  concentration at 384 h: 23.9 ng/mL
Dog 17264, 480 h (d20)
  concentration at 480 h: 20.5 ng/mL
Dog 17264, 648 h (d27)
  concentration at 648 h: 11.4 ng/mL
Dog 17264, 696 h (d29)
  concentration at 696 h: 11.3 ng/mL
Dog 17264, 864 h (d36)
  concentration at 864 h: 7.33 ng/mL
Dog 17264, 1032 h (d43)
  concentration at 1032 h: 5.19 ng/mL
Dog 17264, 1200 h (d50)
  concentration at 1200 h: 3.4 ng/mL
Dog 17264, 1368 h (d57)
  concentration at 1368 h: 3 ng/mL
Dog 17264, 1536 h (d64)
  concentration at 1536 h: 2.84 ng/mL
Dog 17264, 1704 h (d71)
  concentration at 1704 h: 2.48 ng/mL
Dog 17264, 1872 h (d78)
  concentration at 1872 h: 1.79 ng/mL
Dog 17264, 2040 h (d85)
  concentration at 2040 h: 1.99 ng/mL
Dog 17264, 2208 h (d92)
  concentration at 2208 h: 1.56 ng/mL
Dog 18186, 0 h (d0, predose)
  concentration at 0 h: < 1 ng/mL
Dog 18186, 1 h
  concentration at 1 h: 82.6 ng/mL
Dog 18186, 3 h
  concentration at 3 h: 145 ng/mL
Dog 18186, 8 h
  concentration at 8 h: 136 ng/mL
Dog 18186, 24 h (d1)
  concentration at 24 h: 120 ng/mL
Dog 18186, 48 h (d2)
  concentration at 48 h: 132 ng/mL
Dog 18186, 72 h (d3)
  concentration at 72 h: 99.6 ng/mL
Dog 18186, 144 h (d6)
  concentration at 144 h: 91.9 ng/mL
Dog 18186, 192 h (d8)
  concentration at 192 h: 75.5 ng/mL
Dog 18186, 240 h (d10)
  concentration at 240 h: 62.5 ng/mL
Dog 18186, 312 h (d13)
  concentration at 312 h: 38 ng/mL
Dog 18186, 384 h (d16)
  concentration at 384 h: 20.6 ng/mL
Dog 18186, 480 h (d20)
  concentration at 480 h: 16.6 ng/mL
Dog 18186, 648 h (d27)
  concentration at 648 h: 9.08 ng/mL
Dog 18186, 696 h (d29)
  concentration at 696 h: 11.2 ng/mL
Dog 18186, 864 h (d36)
  concentration at 864 h: 6.44 ng/mL
Dog 18186, 1032 h (d43)
  concentration at 1032 h: 5.18 ng/mL
Dog 18186, 1200 h (d50)
  concentration at 1200 h: 3.25 ng/mL
Dog 18186, 1368 h (d57)
  concentration at 1368 h: 3 ng/mL
Dog 18186, 1536 h (d64)
  concentration at 1536 h: 2.44 ng/mL
Dog 18186, 1704 h (d71)
  concentration at 1704 h: 1.84 ng/mL
Dog 18186, 1872 h (d78)
  concentration at 1872 h: 1.45 ng/mL
Dog 18186, 2040 h (d85)
  concentration at 2040 h: 1.61 ng/mL
Dog 18186, 2208 h (d92)
  concentration at 2208 h: 1.25 ng/mL
Mean of 2 dogs, 0 h (d0, predose)
  concentration at 0 h: < 1 ng/mL
Mean of 2 dogs, 1 h
  concentration at 1 h: 96.3 ng/mL
Mean of 2 dogs, 3 h
  concentration at 3 h: 138 ng/mL
Mean of 2 dogs, 8 h
  concentration at 8 h: 133 ng/mL
Mean of 2 dogs, 24 h (d1)
  concentration at 24 h: 135 ng/mL
Mean of 2 dogs, 48 h (d2)
  concentration at 48 h: 146 ng/mL
Mean of 2 dogs, 72 h (d3)
  concentration at 72 h: 107 ng/mL
Mean of 2 dogs, 144 h (d6)
  concentration at 144 h: 89.1 ng/mL
Mean of 2 dogs, 192 h (d8)
  concentration at 192 h: 74 ng/mL
Mean of 2 dogs, 240 h (d10)
  concentration at 240 h: 59.6 ng/mL
Mean of 2 dogs, 312 h (d13)
  concentration at 312 h: 35.7 ng/mL
Mean of 2 dogs, 384 h (d16)
  concentration at 384 h: 22.3 ng/mL
Mean of 2 dogs, 480 h (d20)
  concentration at 480 h: 18.6 ng/mL
Mean of 2 dogs, 648 h (d27)
  concentration at 648 h: 10.2 ng/mL
Mean of 2 dogs, 696 h (d29)
  concentration at 696 h: 11.3 ng/mL
Mean of 2 dogs, 864 h (d36)
  concentration at 864 h: 6.89 ng/mL
Mean of 2 dogs, 1032 h (d43)
  concentration at 1032 h: 5.19 ng/mL
Mean of 2 dogs, 1200 h (d50)
  concentration at 1200 h: 3.33 ng/mL
Mean of 2 dogs, 1368 h (d57)
  concentration at 1368 h: 3 ng/mL
Mean of 2 dogs, 1536 h (d64)
  concentration at 1536 h: 2.64 ng/mL
Mean of 2 dogs, 1704 h (d71)
  concentration at 1704 h: 2.16 ng/mL
Mean of 2 dogs, 1872 h (d78)
  concentration at 1872 h: 1.62 ng/mL
Mean of 2 dogs, 2040 h (d85)
  concentration at 2040 h: 1.8 ng/mL
Mean of 2 dogs, 2208 h (d92)
  concentration at 2208 h: 1.41 ng/mL
